Earlier results, collected in patent US20080275000A1, “COMPOSITIONS FOR REDUCING, AMELIORATING, TREATING, OR PREVENTING CONDITION OF DRY EYE AND METHODS OF MAKING AND USING SAME” (priority 2007, published 2008).
Where two headings read alike, the source gives them in different places.

Assays:
[1] = buffering agent pH range
[2] = Table 1, only or first printed value

| Compound | pKa [2] | pKa (Table 1, second printed value) | also measured |
| --- | --- | --- | --- |
| CCCCOc1ccc(C(=O)O)cc1 [p-n-butoxybenzoic acid] | 4.53 | – | – |
| CC(=O)OO [peroxyacetic acid] | 8.2 | – | – |
| O=S(=O)(O)CCN1CCN(CCO)CC1 [HEPES, N-{2-hydroxyethyl}peperazine-N′-{2-ethanesulfonic acid}] | – | – | pH in the range of [1]: 6.8-8.2 |
| O=COO [peroxyformic acid] | 7.1 | – | – |
| O=C(O)[C@@H]1CCC[C@H]1C(=O)O (relative stereo) [1,2-trans-cyclopentanedicarboxylic acid] | 3.89 | 5.91 | – |
| CC(=O)C1C(=O)C=C(C)OC1=O (centres unmarked) [dehydroacetic acid] | 5.40 | – | – |
| CCCC(=O)OO [n-peroxybutyric acid] | 8.2 | – | – |
| O=C(O)CN(CCN(CC(=O)O)CC(=O)O)CCN(CC(=O)O)CC(=O)O [DTPA, diethylenetriaminepentaacetic acid] | – | – | two pKa values (bound stated for two pKa values): greater than or equal to 6.30 |
| O=C(O)[C@H]1CCC[C@H](C(=O)O)C1 (relative stereo) [1,3-trans-cyclohexanedicarboxylic acid] | 4.18 | 5.93 | – |
| COCCN(CC(=O)O)CC(=O)O [2-methoxyethyliminodiacetic acid] | – | – | pKa (first listed value): 2.2; pKa (second listed value): 8.96 |
| O=C(O)CCCCCCC(=O)O [suberic acid] | 4.52 | 5.4 | – |
| CCCOc1ccc(C(=O)O)cc1 [p-n-propoxybenzoic acid] | 4.46 | – | – |
| O=C(O)c1cccnc1 [nicotinic acid] | – | – | pKa (first listed value): 10.09; pKa (fourth listed value): 2.86; pKa (second listed value): 9.14; pKa (third listed value): 6.92 |
| CC1(C(=O)O)CCC(C(=O)O)C1(C)C (stereo not drawn) [(+) camphoric acid] | 4.72 | – | – |
| O=C(O)[C@H]1CC[C@H](C(=O)O)C1 (relative stereo) [1,3-trans-cyclopentanedicarboxylic acid] | 4.40 | 5.45 | – |
| O=C(O)[C@H]1CC[C@@H](C(=O)O)CC1 [1,4-cis-cyclohexanedicarboxylic acid] | 4.44 | 5.79 | – |
| O=C(O)CN(CCS(=O)(=O)O)CC(=O)O [N-2-sulfoethyliminodiacetic acid] | – | – | pKa (first listed value): 1.92; pKa (second listed value): 2.28; pKa (third listed value): 8.16 |
| O=C(O)CCCCCC(=O)O [pimelic acid] | – | 5.42 | – |
| O=S(=O)(O)CCCN1CCOCC1 [MOPS, 3-{N-morpholino}propanesulfonic acid] | – | – | pH in the range of [1]: 6.5-7.9 |
| O=S(=O)(O)CCN(CCO)CCO [BES, N,N-bis{2-hydroxyethyl}2-aminoethanesulfonic acid] | – | – | pH in the range of [1]: 6.4-7.8 |
| O=C(O)CC1(CC(=O)O)CCCC1 [1,1-cyclopentanediacetic acid] | 3.82 | 6.70 | – |
| CCCCC(=O)O [valeric acid] | 4.85 | – | – |
| CC(CC(=O)O)CC(=O)O [β-methylglutaric acid] | 4.25 | 6.22 | – |
| CSCCN(CC(=O)O)CC(=O)O [2-methylthioethyliminodiacetic acid] | – | – | pKa (first listed value): 2.1; pKa (second listed value): 8.91 |
| O=C(O)CCCCCCCC(=O)O [azelaic acid] | – | 5.41 | – |
| O=C(O)CNCC(=O)O [iminodiacetic acid] | – | – | pKa (first listed value): 2.98; pKa (second listed value): 9.89 |
